In patent US12459932B2, “KIF18A inhibitors” (AMGEN INC., priority 2018, dated 2025):

target: T1, Recombinant human KIF18A (1-467 His-tagged) (Homo sapiens, UniProt Q8NI77); assay: KIF18A Enzyme Assay: microtubule-stimulated ATPase activity (ADP-Glo); type: biochemical; conditions: 30 nM KIF18A, 30 μg/mL pig microtubules, ATP 75 μM (Km), ADP-Glo luminescence
T1 construct: Recombinant human KIF18A (1-467 His-tagged) protein; His
Procedure: KIF18A Enzyme Assay: Microtubule-stimulated ATPase activity assay is used to measure KIF18A enzyme activity after treatment with compound. Compounds were 2-fold serially diluted in DMSO (Sigma Inc) over 22-point concentration range. […] The assay measures ADP formed from the ATPase reaction. […] Read luminescence using EnVision microplate reader with ultra-luminescence module (Perkin Elmer Inc). Concentration-response curve-fitting and IC50 determination was performed using Genedata Screener Software (Standard 15.0.1, Genedata Inc) with a four-parameter logistic regression fit model.

T1 sequence (Q8NI77 1-467): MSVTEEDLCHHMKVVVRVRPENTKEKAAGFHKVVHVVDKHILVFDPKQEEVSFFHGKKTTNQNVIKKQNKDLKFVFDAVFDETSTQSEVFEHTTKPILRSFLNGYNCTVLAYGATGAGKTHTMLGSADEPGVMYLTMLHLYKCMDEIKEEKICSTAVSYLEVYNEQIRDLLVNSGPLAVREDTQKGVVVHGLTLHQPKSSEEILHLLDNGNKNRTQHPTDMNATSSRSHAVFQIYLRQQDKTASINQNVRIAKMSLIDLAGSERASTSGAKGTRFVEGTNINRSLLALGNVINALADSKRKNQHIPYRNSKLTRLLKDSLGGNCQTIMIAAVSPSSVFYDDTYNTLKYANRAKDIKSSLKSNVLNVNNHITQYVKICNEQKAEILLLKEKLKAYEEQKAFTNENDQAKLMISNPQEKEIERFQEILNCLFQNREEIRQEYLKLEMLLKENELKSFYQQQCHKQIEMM
T1 sequence (P02550 whole entry partner): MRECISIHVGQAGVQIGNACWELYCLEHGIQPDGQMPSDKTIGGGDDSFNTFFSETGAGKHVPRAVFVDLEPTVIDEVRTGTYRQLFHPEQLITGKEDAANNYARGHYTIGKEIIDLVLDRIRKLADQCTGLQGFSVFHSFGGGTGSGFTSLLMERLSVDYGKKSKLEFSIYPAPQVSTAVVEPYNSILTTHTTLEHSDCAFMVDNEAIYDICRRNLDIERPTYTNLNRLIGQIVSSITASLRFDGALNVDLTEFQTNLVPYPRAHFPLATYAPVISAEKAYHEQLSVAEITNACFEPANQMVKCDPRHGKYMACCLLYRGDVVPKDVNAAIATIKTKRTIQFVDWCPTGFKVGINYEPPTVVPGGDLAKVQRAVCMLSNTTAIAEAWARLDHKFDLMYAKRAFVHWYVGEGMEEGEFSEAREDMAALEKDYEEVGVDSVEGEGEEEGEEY
T1 sequence (P02554 whole entry partner): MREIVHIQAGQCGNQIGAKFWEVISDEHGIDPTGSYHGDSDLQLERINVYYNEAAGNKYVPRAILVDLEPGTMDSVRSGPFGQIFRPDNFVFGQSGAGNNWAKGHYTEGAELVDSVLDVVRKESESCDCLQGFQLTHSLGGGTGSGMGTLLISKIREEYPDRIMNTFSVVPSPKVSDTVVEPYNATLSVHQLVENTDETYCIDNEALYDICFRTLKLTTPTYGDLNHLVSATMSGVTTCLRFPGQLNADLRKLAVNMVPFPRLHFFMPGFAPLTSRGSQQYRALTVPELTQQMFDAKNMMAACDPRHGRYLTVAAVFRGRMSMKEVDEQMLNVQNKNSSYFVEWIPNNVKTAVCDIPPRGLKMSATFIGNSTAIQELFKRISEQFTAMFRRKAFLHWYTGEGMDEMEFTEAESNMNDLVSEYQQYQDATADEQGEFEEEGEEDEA

SMILES	IC50 [nM]
C[C@H]1CN(c2cccc(NC(=O)c3ccc(NS(=O)(=O)CCO)cc3N3CCC4(CC3)CC4)n2)CCO1 [Example 7-13, (S)-4-((2-Hydroxyethyl)sulfonamido)-N-(6-(2-methylmorpholino)pyridin-2-yl)-2-(6-azaspiro[2.5]octan-6-yl)benzamide]	46
C[C@@H]1CN(c2cc(C(F)(F)F)cc(NC(=O)c3ccc(NS(=O)(=O)CCO)cc3N3CCC4(CC3)CC4)n2)CCO1 [Example 20, (R)-4-((2-Hydroxyethyl)sulfonamido)-N-(6-(2-methylmorpholino)-4-(trifluoromethyl)pyridin-2-yl)-2-(6-azaspiro[2.5]octan-6-yl)benzamide]	93
C[C@@H]1CN(c2cccc(NC(=O)c3ccc(S(=O)(=O)N4CCC4)cc3N3CCC4(CC3)CC4)n2)CCO1 [Example 1-7, (R)-4-(Azetidin-1-ylsulfonyl)-N-(6-(2-methylmorpholino)pyridin-2-yl)-2-(6-azaspiro[2.5]octan-6-yl)benzamide]	67
CC1(S(=O)(=O)Nc2ccc(C(=O)Nc3cccc(N4CCc5cc(Cl)ccc54)n3)c(N3CCC4(CC3)CC4)c2)CC1 [Example 3-15, N-(6-(5-Chloroindolin-1-yl)pyridin-2-yl)-4-((1-methylcyclopropane)-1-sulfonamido)-2-(6-azaspiro[2.5]octan-6-yl)benzamide]	33
CC1(S(=O)(=O)Nc2ccc(C(=O)Nc3cccc(N4CCO[C@H](CO)C4)n3)c(N3CCC4(CC3)CC4)c2)CC1 [Example 3-12, (S)-N-(6-(2-(Hydroxymethyl)morpholino)pyridin-2-yl)-4-((1-methylcyclopropane)-1-sulfonamido)-2-(6-azaspiro[2.5]octan-6-yl)benzamide]	81
CC(C)(C)S(=N)(=O)c1cccc(NC(=O)c2ccc(NS(=O)(=O)CCO)cc2N2CCC3(CC2)CC3)n1 (stereo not drawn) [Example 26, 4-((2-Hydroxyethyl)sulfonamido)-N-(6-(2-methylpropan-2-ylsulfonimidoyl)pyridin-2-yl)-2-(6-azaspiro[2.5]octan-6-yl)benzamide]	363
CC(C)(O)CCOc1cccc(NC(=O)c2ccc(NS(=O)(=O)CCO)cc2N2CCC3(CC2)CC3)n1 [Example 16-5, N-(6-(3-Hydroxy-3-methylbutoxy)pyridin-2-yl)-4-((2-hydroxyethyl)sulfonamido)-2-(6-azaspiro[2.5]octan-6-yl)benzamide]	84
Cc1cc(NC(=O)c2ccc(S(=O)(=O)NCCO)cc2N2CCC3(CC2)CC3)nc(N2CCC(F)(F)CC2)c1 [Example 1-2, N-(6-(4,4-Difluoropiperidin-1-yl)-4-methylpyridin-2-yl)-4-(N-(2-hydroxyethyl)sulfamoyl)-2-(6-azaspiro[2.5]octan-6-yl)benzamide]	32
CC1(S(=O)(=O)Nc2ccc(C(=O)Nc3cccc(OCC4CC4)n3)c(N3CCC4(CC3)CC4)c2)CC1 [Example 14, N-(6-(Cyclopropylmethoxy)pyridin-2-yl)-4-((1-methylcyclopropane)-1-sulfonamido)-2-(6-azaspiro[2.5]octan-6-yl)benzamide]	19
C[C@@H]1CN(c2nc(NC(=O)c3ccc(NS(=O)(=O)CCO)cc3N3CCC4(CC3)CC4)ccc2F)CCO1 [Example 24, (R)-N-(5-Fluoro-6-(2-methylmorpholino)pyridin-2-yl)-4-((2-hydroxyethyl)sulfonamido)-2-(6-azaspiro[2.5]octan-6-yl)benzamide]	33
CC1(S(=O)(=O)Nc2ccc(C(=O)Nc3cccc(N4CCC[C@H](CO)C4)n3)c(N3CCC4(CC3)CC4)c2)CC1 [Example 3-7, (S)-N-(6-(3-(Hydroxymethyl)piperidin-1-yl)pyridin-2-yl)-4-((1-methylcyclopropane)-1-sulfonamido)-2-(6-azaspiro[2.5]octan-6-yl)benzamide]	65
Cc1ccc(NC(=O)c2ccc(NS(=O)(=O)CCO)cc2N2CCC3(CC2)CC3)nc1N1CCC(F)(F)CC1 [Example 22, N-(6-(4,4-Difluoropiperidin-1-yl)-5-methylpyridin-2-yl)-4-((2-hydroxyethyl)sulfonamido)-2-(6-azaspiro[2.5]octan-6-yl)benzamide]	41
CC(CO)NS(=O)(=O)c1ccc(C(=O)Nc2cccc(N3CCO[C@H](C)C3)n2)c(N2CCC3(CC2)CC3)c1 (stereo partly drawn) [Example 1-5, 4-(N-(1-Hydroxypropan-2-yl)sulfamoyl)-N-(6-((R)-2-methylmorpholino)pyridin-2-yl)-2-(6-azaspiro[2.5]octan-6-yl)benzamide]	47
C[C@@H]1CN(c2cccc(NC(=O)c3ccc(S(=O)(=O)CC(C)(C)O)cc3N3CCC4(CC3)CC4)n2)CCO1 [Example 2-6, (R)-4-((2-Hydroxy-2-methylpropyl)sulfonyl)-N-(6-(2-methylmorpholino)pyridin-2-yl)-2-(6-azaspiro[2.5]octan-6-yl)benzamide]	110
C[C@@H]1CN(c2cccc(NC(=O)c3ccc(S(=O)(=O)NC(C)(C)CO)cc3N3CCC4(CC3)CC4)n2)CCO1 [Example 1-4, (R)-4-(N-(1-Hydroxy-2-methylpropan-2-yl)sulfamoyl)-N-(6-(2-methylmorpholino)pyridin-2-yl)-2-(6-azaspiro[2.5]octan-6-yl)benzamide]	46
CC1(S(=O)(=O)Nc2ccc(C(=O)Nc3cccc(N4CCCC(C#N)C4)n3)c(N3CCC4(CC3)CC4)c2)CC1 (stereo not drawn) [Example 3-22, N-(6-(3-Cyanopiperidin-1-yl)pyridin-2-yl)-4-((1-methylcyclopropane)-1-sulfonamido)-2-(6-azaspiro[2.5]octan-6-yl)benzamide]	86
CC(O)CCOc1cccc(NC(=O)c2ccc(NS(=O)(=O)CCO)cc2N2CCC3(CC2)CC3)n1 (stereo not drawn) [Example 16-7, N-(6-(3-Hydroxybutoxy)pyridin-2-yl)-4-((2-hydroxyethyl)sulfonamido)-2-(6-azaspiro[2.5]octan-6-yl)benzamide]	31

Next, values leading:

IC50 [nM]	SMILES
18	O=C(Nc1cccc(OCC(O)C(F)(F)F)n1)c1ccc(NS(=O)(=O)CCO)cc1N1CCC2(CC1)CC2 (stereo not drawn) [Example 16-8, 4-((2-Hydroxyethyl)sulfonamido)-2-(6-azaspiro[2.5]octan-6-yl)-N-(6-(3,3,3-trifluoro-2-hydroxypropoxy)pyridin-2-yl)benzamide]
69	C[C@@H]1CN(c2cccc(NC(=O)c3ccc(S(C)(=O)=O)cc3N3CCC4(CC3)CC4)n2)CCO1 [Example 4-13, (R)-N-(6-(2-Methylmorpholino)pyridin-2-yl)-4-(methylsulfonyl)-2-(6-azaspiro[2.5]octan-6-yl)benzamide]
179	CC(C)c1cccc(NC(=O)c2ccc(S(C)(=O)=O)cc2N2CCC3(CC2)CC3)n1 [Example 4-5, N-(6-Isopropylpyridin-2-yl)-4-(methylsulfonyl)-2-(6-azaspiro[2.5]octan-6-yl)benzamide]
47.2	C[C@@H](CO)S(=O)(=O)Nc1ccc(C(=O)Nc2cccc(N3CC(F)C3)n2)c(N2CCC3(CC2)CC3)c1 (single isomer, unassigned) [Example 9-2]
98	C[C@@H]1CN(c2cccc(NC(=O)c3ccc(N4CCS4(=O)=O)cc3N3CCC4(CC3)CC4)n2)CCO1 [Example 7-6, (R)-4-(1,1-Dioxido-1,2-thiazetidin-2-yl)-N-(6-(2-methylmorpholino)pyridin-2-yl)-2-(6-azaspiro[2.5]octan-6-yl)benzamide]
199	C[C@@H]1CN(c2cccc(NC(=O)c3ccc([S@](=N)(=O)C(C)(C)C)cc3N3CCC4(CC3)CC4)n2)CCO1 (single isomer, unassigned) [Example 13-1]
76	Cc1cc(NC(=O)c2ccc(NS(=O)(=O)C3(CO)CC3)cc2N2CCC3(CC2)CC3)nc(N2CC(F)(F)C2)c1 [Example 10-2, N-(6-(3,3-Difluoroazetidin-1-yl)-4-methylpyridin-2-yl)-4-((1-(hydroxymethyl)cyclopropane)-1-sulfonamido)-2-(6-azaspiro[2.5]octan-6-yl)benzamide]
49	C[C@@H]1CN(c2cccc(NC(=O)c3ccc(NS(=O)(=O)C(F)F)cc3N3CCC4(CC3)CC4)n2)CCO1 [Example 7-7, (R)-4-((Difluoromethyl)sulfonamido)-N-(6-(2-methylmorpholino)pyridin-2-yl)-2-(6-azaspiro[2.5]octan-6-yl)benzamide]
118	CS(=O)(=O)c1ccc(C(=O)Nc2cccc(N3CCOCC3)n2)c(N2CCC3(CC2)CC3)c1 [Example 4-12, 4-(Methylsulfonyl)-N-(6-morpholinopyridin-2-yl)-2-(6-azaspiro[2.5]octan-6-yl)benzamide]
128	CC(C)(O)c1cccc(NC(=O)c2ccc(NS(=O)(=O)C3(C)CC3)cc2N2CCC3(CC2)CC3)n1 [Example 4-1, N-(6-(2-Hydroxypropan-2-yl)pyridin-2-yl)-4-((1-methylcyclopropane)-1-sulfonamido)-2-(6-azaspiro[2.5]octan-6-yl)benzamide]
154	C[C@@H]1CN(c2cccc(NC(=O)c3ccc(S(C)(=N)=O)cc3N3CCC4(CC3)CC4)n2)CCO1 (stereo in doubt) [Example 13-4, 2-(6-Azaspiro[2.5]octan-6-yl)-N-(6-((2R)-2-methyl-4-morpholinyl)-2-pyridinyl)-4-(R-methylsulfonimidoyl)benzamide]
63	CN1CC(COc2cccc(NC(=O)c3ccc(NS(=O)(=O)CCO)cc3N3CCC4(CC3)CC4)n2)C1 [Example 16-3, 4-((2-Hydroxyethyl)sulfonamido)-N-(6-((1-methylazetidin-3-yl)methoxy)pyridin-2-yl)-2-(6-azaspiro[2.5]octan-6-yl)benzamide]
50	CCS(=O)(=O)Nc1ccc(C(=O)Nc2cccc(N3CCO[C@H](C)C3)n2)c(N2CCC3(CC2)CC3)c1 [Example 7-37, (R)-4-(Ethylsulfonamido)-N-(6-(2-methylmorpholino)pyridin-2-yl)-2-(6-azaspiro[2.5]octan-6-yl)benzamide]
